Laboratory results published in patent US20260242419A1, “A CYCLIC PEPTIDE FOR TRAPPING INTERLEUKIN-1 BETA” (Merck Sharp & Dohme LLC, priority 2023, published 2026).
Starred links: 1 amine or outer side, 2 acyl side, 3 side chain; linkers in the order of their positions; H or OH if unused. Non-standard residues stand in square brackets, D forms with d. Residues, ends and D or L forms follow the SMILES beside them. Phe(4-(5-CO2H-2-pyrimidyl)) = N[C@@H](Cc1ccc(-c2ncc(C(=O)O)cn2)cc1)C(=O)O; dPro(4R-(4-pyridylmethyl)) = O=C(O)[C@H]1C[C@@H](Cc2ccncc2)CN1; Trp(βS-Me,4-F) = C[C@@H](c1c[nH]c2cccc(F)c12)[C@H](N)C(=O)O; 3Aminoazetidine3carboxyl = O=C(C1(N[*:1])CN([*:3])C1)[*:2]; Bip(4'-COOH) = N[C@@H](Cc1ccc(-c2ccc(C(=O)O)cc2)cc1)C(=O)O; Ala(1-bicyclo(1.1.1)pentyl) = N[C@@H](CC12CC(C1)C2)C(=O)O; X11 = O=C([C@H]1C[C@@H](Cc2ccc(F)c3ccccc23)CN1[*:1])[*:2]; dPro(4R-Bzl(4-F)) = O=C(O)[C@H]1C[C@@H](Cc2ccc(F)cc2)CN1; 1Nal(3S-Me) = C[C@@H](c1cccc2ccccc12)[C@H](N)C(=O)O; Ala(morpholin-4-yl) = N[C@@H](CN1CCOCC1)C(=O)O; Ala(pyrimidin-5-yl) = N[C@@H](Cc1cncnc1)C(=O)O; Phe(4-COOH) = N[C@@H](Cc1ccc(C(=O)O)cc1)C(=O)O; Pro(cis-4-F) = O=C(O)[C@@H]1C[C@H](F)CN1; AEF = NCCOc1ccc(C[C@H](N)C(=O)O)cc1; d(αMeD) = C[C@@](N)(CC(=O)O)C(=O)O; 4Pal = N[C@@H](Cc1ccncc1)C(=O)O; aThr = C[C@H](O)[C@H](N)C(=O)O; αMeK = C[C@](N)(CCCCN)C(=O)O; Dab = NCC[C@H](N)C(=O)O; Aib = CC(C)(N)C(=O)O

These compounds were tested against T1, IL-1β (Homo sapiens, UniProt P01584) (assay: IL-6 assay in MRC5 cells: inhibition of IL-1β induced IL-6 secretion (AlphaLISA)). Settings: inhibition of IL-1β induced IL-6 secretion in MRC5 cells; read-out: MRC5 IC50.
T1 construct: purchased BioLegend 579404
T1 sequence (P01584 117-269): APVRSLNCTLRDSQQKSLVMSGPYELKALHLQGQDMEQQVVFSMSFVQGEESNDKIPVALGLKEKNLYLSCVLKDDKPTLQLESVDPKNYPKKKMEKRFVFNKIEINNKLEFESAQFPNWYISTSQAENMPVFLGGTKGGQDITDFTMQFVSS
Format: cell-based
Method: Procedure for IL-6 Assay in MRC5 Cells
The inhibition of IL-1β induced IL-6 secretion was evaluated in MRC5 cells. Recombinant human IL-1β (BioLegend 579404) at 2λ EC80 concentration was prepared in seeding medium. EMEM (ATCC 30-2003) with 0.025% BSA (Sigma A9576), 1×penicillin/streptomycin (Gibco 15070-063), 1×NEAA (Gibco 11140-050), 1×GlutaMax (Gibco 35050-061), and 1×sodium pyruvate (Gibco 11360-070), 20 μL of IL-1β was added to a 384-well collagen-coated plate (Corning 354664) and pre-incubated at ambient temperature for 1 hour with 200 nL of compound dispensed using an ECHO 555 liquid handler. Human lung fibroblast MRC5 cells (ATCC CCL-171) were added at a density of 3000 cells/20 μL per well. The cells were prepared by passaging three times in growth medium, EMEM (ATCC 30-2003) with 10% fetal bovine serum (Gibco 16140-071), 1×penicillin/streptomycin (Gibco 15070-063), 1×NEAA (Gibco 11140-050), 1×GlutaMax (Gibco 35050-061), and 1×sodium pyruvate (Gibco 11360-070) in collagen-coated T175 flasks (Greiner 661950) and harvested in seeding medium after 5 minutes of 0.25% trypsin-EDTA (Gibco 25200-056) digestion. The 384-well collagen-coated plate, containing a final volume of 40 μL, was incubated at 37° C., 5% CO2 overnight. 5 μL of the conditioned medium was transferred to a 384-well AlphaLISA plate (PerkinElmer 6005350) for detection of IL-6 using the human AlphaLISA IL-6 kit (PerkinElmer AL223F) as per the manufacturer's protocol. 20 μL of the acceptor bead/biotinylated antibody mix was added to the 384-well AlphaLISA plate and incubated for 1 hour at ambient temperature. The donor bead mix was protected from light and 25 μL was added to the plate and incubated for 30 minutes at ambient temperature. The AlphaLISA plate was read on an EnVision multimode plate reader (Perkin Elmer model 2104) using the AlphaScreen setting (laser exc at 680 nm and emis at […]). Dose response curves and IC50 values were analyzed using a 4-parameter logistic equation in Spotfire software (Tibco, Palo Alto, CA).

Compound | IC50 [nM]
C[C@@H](c1c[nH]c2cccc(F)c12)[C@@H]1NC(=O)[C@@H]2C[C@H](F)CN2C(=O)CNC(=O)[C@H](Cc2ccc(C(=O)O)cc2)NC(=O)[C@H](CC23CC(C2)C3)NC(=O)[C@H](Cc2ccc(-c3ncc(C(=O)O)cn3)cc2)NC(=O)[C@H]2C[C@@H](Cc3ccc(F)cc3)CN2C(=O)CNC(=O)[C@H](CCN)NC(=O)[C@H](CCC(N)=O)NC(=O)[C@H](Cc2cncnc2)NC(=O)C(C)(C)NC(=O)[C@H](Cc2c[nH]c3ccccc23)NC(=O)[C@H](CCC(=O)O)NC(=O)C(C)(C)NC1=O [Example 82] (cyclo([Phe(4-(5-CO2H-2-pyrimidyl))][Ala(1-bicyclo(1.1.1)pentyl)][Phe(4-COOH)]G[Pro(cis-4-F)][Trp(βS-Me,4-F)][Aib]EW[Aib][Ala(pyrimidin-5-yl)]Q[Dab]G[dPro(4R-Bzl(4-F))])) | 0.054
CC(=O)NCCOc1ccc(C[C@@H]2NC(=O)[C@H]3C[C@@H](Cc4ccncc4)CN3C(=O)CNC(=O)[C@H](CCN)NC(=O)[C@H](CCC(N)=O)NC(=O)[C@H](Cc3ccccc3)NC(=O)C(C)(C)NC(=O)[C@H](Cc3c[nH]c4ccccc34)NC(=O)[C@H](CCC(=O)O)NC(=O)C(C)(C)NC(=O)[C@H]([C@@H](C)c3c[nH]c4cccc(F)c34)NC(=O)[C@@H]3C[C@H](F)CN3C(=O)CNC(=O)[C@H](Cc3ccc(C(=O)O)cc3)NC(=O)[C@H](Cc3ccncc3)NC2=O)cc1 [Example 336] (cyclo([AEF](Ac)[4Pal][Phe(4-COOH)]G[Pro(cis-4-F)][Trp(βS-Me,4-F)][Aib]EW[Aib]FQ[Dab]G[dPro(4R-(4-pyridylmethyl))])) | 0.023
C[C@@H](c1c[nH]c2cccc(F)c12)[C@@H]1NC(=O)[C@@H]2C[C@H](F)CN2C(=O)CNC(=O)[C@H](Cc2ccc(C(=O)O)cc2)NC(=O)[C@H](Cc2ccncc2)NC(=O)[C@H](Cc2ccc(-c3ncc(C(=O)O)cn3)cc2)NC(=O)[C@H]2C[C@@H](Cc3ccc(F)cc3)CN2C(=O)CNC(=O)[C@H](CCN)NC(=O)[C@H](CCC(N)=O)NC(=O)[C@H](Cc2ccncc2)NC(=O)C2(CNC2)NC(=O)[C@H](Cc2c[nH]c3ccccc23)NC(=O)[C@H](CCC(=O)O)NC(=O)C(C)(C)NC1=O [Example 81] (cyclo([Phe(4-(5-CO2H-2-pyrimidyl))][4Pal][Phe(4-COOH)]G[Pro(cis-4-F)][Trp(βS-Me,4-F)][Aib]EW[3Aminoazetidine3carboxyl][4Pal]Q[Dab]G[dPro(4R-Bzl(4-F))])) | 0.049

Compounds with a lower IC50, results first:

IC50 [nM] | Compound
0.022 | C[C@@H](c1c[nH]c2cccc(F)c12)[C@@H]1NC(=O)[C@@H]2C[C@H](F)CN2C(=O)CNC(=O)[C@H](Cc2ccc(C(=O)O)cc2)NC(=O)[C@H](CC23CC(C2)C3)NC(=O)[C@H](Cc2ccc(-c3ccc(C(=O)O)cc3)cc2)NC(=O)[C@H]2C[C@@H](Cc3ccc(F)cc3)CN2C(=O)CNC(=O)[C@H](CCN)NC(=O)[C@H](CCC(N)=O)NC(=O)[C@H](CN2CCOCC2)NC(=O)[C@](C)(CCCCN)NC(=O)[C@H](Cc2c[nH]c3ccccc23)NC(=O)[C@H](CCC(=O)O)NC(=O)C(C)(C)NC1=O [Example 165] (cyclo([Bip(4'-COOH)][Ala(1-bicyclo(1.1.1)pentyl)][Phe(4-COOH)]G[Pro(cis-4-F)][Trp(βS-Me,4-F)][Aib]EW[αMeK][Ala(morpholin-4-yl)]Q[Dab]G[dPro(4R-Bzl(4-F))]))
0.017 | C[C@H](O)[C@@H]1NC(=O)[C@@](C)(CC(=O)O)NC(=O)[C@H](Cc2c[nH]c3ccccc23)NC(=O)[C@H](CO)NC(=O)C(C)(C)NC(=O)[C@H]([C@@H](C)c2cccc3ccccc23)NC(=O)[C@@H]2C[C@H](F)CN2C(=O)CNC(=O)[C@H](Cc2ccc(C(=O)O)cc2)NC(=O)[C@H](Cc2ccncc2)NC(=O)[C@H](Cc2ccc(-c3ccc(C(=O)O)cc3)cc2)NC(=O)[C@H]2C[C@@H](Cc3ccncc3)CN2C(=O)CNC(=O)[C@H](CCN)NC(=O)[C@H](CCC(N)=O)NC1=O [Example 357] (cyclo([Bip(4'-COOH)][4Pal][Phe(4-COOH)]G[Pro(cis-4-F)][1Nal(3S-Me)][Aib]SW[d(αMeD)][aThr]Q[Dab]G[dPro(4R-(4-pyridylmethyl))]))
0.016 | C[C@@H](c1c[nH]c2cccc(F)c12)[C@@H]1NC(=O)[C@@H]2C[C@H](F)CN2C(=O)CNC(=O)[C@H](Cc2ccc(C(=O)O)cc2)NC(=O)[C@H](Cc2ccncc2)NC(=O)[C@H](Cc2ccc(-c3ccc(C(=O)O)cc3)cc2)NC(=O)[C@H]2C[C@@H](Cc3ccc(F)c4ccccc34)CN2C(=O)CNC(=O)[C@H](CCN)NC(=O)[C@H](CCC(N)=O)NC(=O)[C@H](Cc2cncnc2)NC(=O)[C@@](C)(CC(=O)O)NC(=O)[C@H](Cc2c[nH]c3ccccc23)NC(=O)[C@H](CO)NC(=O)C(C)(C)NC1=O [Example 327] (cyclo([Bip(4'-COOH)][4Pal][Phe(4-COOH)]G[Pro(cis-4-F)][Trp(βS-Me,4-F)][Aib]SW[d(αMeD)][Ala(pyrimidin-5-yl)]Q[Dab]G[X11]))
